Source: PMC3515450, “Mechanistic and Structural Understanding of Uncompetitive Inhibitors of Caspase-6” (PLoS ONE, 2012)

Tests used:
caspase-6 = molecular target: T1, caspase-6 (Homo sapiens, UniProt P55212); test: Steady-state Michaelis-Menten kinetic analysis of caspase-6; type: biochemical
T1 construct: Residues 24-179 and 194-293 from caspase-6 cDNA (Origene) were cloned into pET-24b and pET-23b vectors; 6x histidine tag (C); made in house; host or cells: E. coli BL21 (DE3) pLysS
T1 sequence (P55212 24-179): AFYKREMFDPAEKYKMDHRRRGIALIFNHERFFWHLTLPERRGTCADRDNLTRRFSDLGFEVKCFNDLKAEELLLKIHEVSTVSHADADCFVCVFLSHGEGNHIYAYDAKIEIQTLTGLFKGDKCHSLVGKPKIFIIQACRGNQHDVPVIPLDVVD
T1 sequence (P55212 194-293): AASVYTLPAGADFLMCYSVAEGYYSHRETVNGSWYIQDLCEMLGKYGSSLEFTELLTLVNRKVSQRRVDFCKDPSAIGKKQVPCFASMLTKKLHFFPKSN
Procedure: The in vitro enzymatic caspase assays utilize synthetic tetrapeptide substrates labeled with the fluorophores Rhodamine110 (R110) or 7-amino-4-methylcoumarin (AMC) at the P1 aspartic acid (Asp) residue. All assays were performed in 384-well plates in 12 µL reaction volume consisting of enzyme, substrate and indicated concentration of inhibitor or DMSO in assay buffer (50 mM HEPES [pH 7.0], 25 mM MgSO4, 0.5 mM EGTA, 5 mM Glutathione (GSH), 0.01% Triton X-100 containing 0.1% Bovine Gamma Globulin (BGG)). All inhibitors were serially diluted in 100% DMSO prior to dilution in assay buffer and transfer to assay plate. DMSO was diluted into assay buffer similarly for blank wells (no enzyme or compound) and final DMSO concentration was 1%. The concentration of caspase-6 used in enzymatic reactions typically varied between 1–10 nM depending on substrate used. Unless otherwise indicated, substrate concentration was within 3-fold of the determined Kmapparent (5 µM (Ac-VEID)2R110 [Kmapp = 8 µM]; 5 µM (Ac-DEVD)2R110 [Kmapp = 8 µM]; 25 µM (Ac-IETD)2R110 [Kmapp = 70 µM]; 25 µM (Ac-WEHD)2R110 [Kmapp = 70 µM]; 10µM Ac-VEID-AMC [Kmapp = 16µM]; 5 µM Ac-VEID-R110 [Kmapp = 8 µM]). The concentration of substrate utilized in selectivity assays for each caspase isoform was also held as close to Kmapparent as reasonably achievable (Table S1). Caspases-3 and -7 were expressed and purified at Genentech as the catalytic domain consisting of large p20 and small p10 subunits without prodomain. For all caspase enzymatic assays, the reaction plate was incubated at room temperature for 40 minutes and then read on Envision (Perkin Elmer) fluorescent plate reader at excitation/emission wavelengths of 485/535 nm (R110) or 350/450 nm (AMC).
The endpoint fluorescent emission (RFU) in each well was plotted as a function of inhibitor concentration and the 50% inhibition (IC50) values were determined using a nonlinear least squares fit of the data to a four parameter equation using Prism 5.0 software (GraphPad Software, San Diego, CA). […] Ki values for Compound 3 were calculated using this equation: Ki = IC50/(Km/[S] +1). Concentration-response curves for each inhibitor were normalized to zero and 100% based on no enzyme or DMSO control, respectively. For steady-state kinetic analysis, initial reaction velocity (RFU/minute) was plotted against substrate concentration at each inhibitor concentration and the data was fit to a hyperbolic Michaelis-Menten model using Prism 5.0 software. Km (µM) and Vmax (RFU/minute) were calculated by using this equation: v = Vmax • [S]/Km+[S] where v = initial reaction velocity at indicated substrate concentration (S). Vmax values were normalized to zero and 100% based on no enzyme or DMSO control, respectively.

[1] = molecular target: T2, covalent VEID/caspase-6 complex (Homo sapiens, UniProt P55212); test: SPR binding to VEID-FMK-blocked caspase-6; details: covalent VEID/caspase-6 (acyl enzyme) complex, 1:1 binding
T2 construct: Residues 24-179 and 194-293 from caspase-6 cDNA (Origene) were cloned into pET-24b and pET-23b vectors; 6x histidine tag; made in house; host or cells: E. coli (as above), BirA co-expressed
T2 sequence (P55212 24-179): T1 sequence (P55212 24-179)
T2 sequence (P55212 194-293): T1 sequence (P55212 194-293)
Procedure: For SPR experiments, caspase-6 was cloned to include a C-terminal avi-tag (Avidity) and expressed and purified as above, except that biotin ligase (BirA) was co-expressed during fermentation. […] Avi-tagged zymogen C163A-caspase-6 was processed to mature C163A-caspase-6 by the addition of active caspase-3 and caspase-6. Chip preparation for neutravidin-based capture was performed as previously described using either a Biacore T100 or Biacore 3000 instrument (GE Healthcare). Running buffer was 50 mM HEPES pH 7.2, 100 mM MgSO4, 30 mM NaCl, 1 mM TCEP, 0.01% Triton X-100, 1% PEG-3350, 2.5% DMSO, and the instrument was set for 20 degrees C. After capture one flow cell of apo-caspase-6 was exposed to a continuous flow of 20 µM VEID-FMK. A rise in signal could be detected for the binding/reacting of the VEID-FMK and exposure was continued until no additional rise in response was observed (∼45 minutes) indicating full saturation of all binding sites. There was no observed decrease in signal upon washing, indicating the reaction was irreversible. […] Fluorescent substrates were too limiting in solubility and quantity to be added to the running buffer, so substrates were mixed at a concentration equal to their Kmapp with 3 and injected together over the indicated surfaces. […]

Vmax (% of DMSO control) for (VEID)2R110 (caspase-6; 3 nM of 3): 77.51 % of DMSO control
Vmax (% of DMSO control) for (VEID)2R110 (caspase-6; 10 nM of 3): 55.35 % of DMSO control
Vmax (% of DMSO control) for (VEID)2R110 (caspase-6; 30 nM of 3): 31.09 % of DMSO control
Vmax (% of DMSO control) for (VEID)2R110 (caspase-6; 100 nM of 3): 14.10 % of DMSO control
mechanism of inhibition (caspase-6; (DEVD)2R110 substrate): uncompetitive
mechanism of inhibition (caspase-6; (VEID)2R110 substrate): uncompetitive
Kd [1]: 1300 nM
Compound: COc1ccc(-c2cc(C(=O)N[C@@H](CO)Cc3cccc(C#N)c3)co2)cc1OC [Compound 3]
